This is an account of results in patent US9089603B2, “Fluorescent imaging with substituted cyanine dyes” (LI-COR, INC., priority 2010, dated 2015).

One data set has as its system U87GM cells. As to the kind of experiment: Immunocytochemical binding, blocking and carboxylate control assay in U87GM cells. The class given is cell-based. To be noted: tested up to 5 μM, noted above 2 μM. The procedure:
RGD (Arg-Gly-Asp), the recognition motif used to bind the integrin receptors, was labeled with compound 17. The characteristics of RGD/17 conjugate and the analogous dye carboxylate 16 were evaluated in a cell-based assay.
Immunocytochemical assays provide a tool for screening a compound for specificity of a labeled agent. Binding assays give valuable information on affinity of the labeled agent to the intended target.
Compound 17 was conjugated to the peptide RGD by the general procedure set forth in Example 32.
The cell lines U87GM and PC3MLN4 were assayed. Assays included binding, blocking, and carboxylate control. Serial dilutions of compound 16 were prepared at concentrations of 200-6.25 nM. Blocking was accomplished with unlabeled RGD at concentrations of 10-0.31 μM with the addition of 200 nM compound 17-RGD conjugates in all test wells. The compound 16 was evaluated as a dye control for non-specific binding at relatively high levels from 5-0.16 μM with U87GM cells and 1-0.002 μM with PC3 cells.
In the second round of testing with U87GM cells, concentrations of unlabeled RGD and compound 17/RGD were increased (FIGS. 8A and 8B). Binding assay concentrations utilized 0.8-400 nM while the blocking assay used 0.06-30 μM unlabeled RGD with an addition of 200 nM 17/RGD.

A short description of data set [1]: Absorption wavelength of the cyanine dyes in methanol (halo substitution effect). The data set is classed as physicochemical. To be noted: Table 2. The text has this: [table] Design Principle: We analyzed the properties of a dye scaffold and related compounds and the corresponding substitution effects on the excitation and emission wavelengths. The small size of fluorine is unlikely to produce steric effects, therefore, we explored the electronic effects of fluorine and related substitutions. The Hammett equation (σ-value) is an important tool to understand the electronic effects of the substituents, therefore, we explored the correlation of the wavelength (λMeOH) and the σ-value (vide infra): […]

Data set [2] in a line: In vivo clearance imaging in nude mice (Pearl Impulse). To be noted: 1 nmole; for Total (signal): 800 channel; for Clearance in vivo: nude mice, imaged over 24 h. As to the method:
Two nude mice were injected with 1 nmole of either compound 16 or IRDye 800CW carboxylate. They were then imaged longitudinally over the next 24 h with the Pearl Impulse imaging system. The results are presented in FIG. 9: in vivo clearance in nudes (FIG. 9A), whole body dorsal views (FIG. 9B), and the rate of clearance (FIG. 9C). The clearance data is presented below in Table 4.

The nature of data set [3]: Comparison of dye emission maxima and quenching. The class given is physicochemical. To be noted: IRDye 800CW samples, excitation 770 nm; for Peak fluorescence emission intensity: PBS pH 7.4; for Percent Quenching: versus dye-linker standard. As to the method:
Solutions of dye-linker standards and dye-linker-quencher samples were diluted into PBS buffer (pH 7.4) to give a dye-specific absorbance less than 0.2 AU. The fluorescence spectra of each dilution were then taken at a consistent excitation wavelength (670 nm for HETD and 770 nm for IRDye 800CW). The emission spectra were collected from 680-1000 nm for the HETD samples and 780-1000 nm for the IRDye 800CW samples.

Data set [4] is described as follows: Photophysical properties (absorption, emission, fluorescence intensity, quantum yield) versus IRDye 800CW. The class given is physicochemical. To be noted: for Fl Intensity of X / Fl Intensity of 800 CW, Odyssey / Fl Intensity of X / Fl Intensity of 800 CW, Fluorimeter: 0.1 μM solutions in 1XPBS; for Abs Max PBS / EmMax PBS: in PBS.
For data set [5] the following is noted: IRDye 800CW used as standard; cited from earlier work.

Turning to `CC1(C)C(/C=C/C2=C(c3c(F)cc(F)cc3F)C(=C/C=C3/N(CCCS(=O)(=O)[O-])c4ccc(S(=O)(=O)[O-])cc4C3(C)C)/CC(C(=O)O)C2)=[N+](CCCS(=O)(=O)[O-])c2ccc(S(=O)(=O)[O-])cc21.[Na+].[Na+].[Na+]` (stereo not drawn) [Compound 16], in the data set on U87GM cells, the “Non-specific binding of the dye component alone” value is “Relatively high binding”. This compound also had a λMeOH in data set [1] of 785 nm. For the same compound, the “Total (signal)” value is given as 109682.80 in data set [2] (1 Min); 282046.59 in data set [2] (17 Min); 286573.94 in data set [2] (45 Min); 266647.59 in data set [2] (71 Min); 139736.97 in data set [2] (190 Min); 76493.30 in data set [2] (276 Min). In addition, the “Total (signal)” value in data set [2] (1435 Min) came out at 1652.69. Moreover, the Clearance in vivo entry in data set [2] is reported as “good clearance”.
On to `CC1(C)C(/C=C/C2=C(Oc3ccc(S(=O)(=O)[O-])cc3)C(=C/C=C3/N(CCCCCC(=O)NCCOCCOCCOCCN=[N+]=[N-])c4ccc(S(=O)(=O)[O-])cc4C3(C)C)/CCC2)=[N+](CCCCS(=O)(=O)[O-])c2ccc(S(=O)(=O)[O-])cc21.[Na+].[Na+].[Na+]` [Compound 29, sodium 2-((E)-2-((E)-3-((E)-2-(1-(1-azido-13-oxo-3,6,9-trioxa-12-azaoctadecan-18-yl)-3,3-dimethyl-5-sulfonatoindolin-2-ylidene)ethylidene)-2-(4-sulfonatophenoxy)cyclohex-1-enyl)vinyl)-3,3-dimethyl-1-(4-sulfonatobutyl)-3H-indolium-5-sulfonate], for which the “Peak fluorescence emission intensity” value in data set [3] worked out at 1245060.
Still for that read-out and setting: with `CC1(C)C(/C=C/C2=C(Oc3ccc(S(=O)(=O)[O-])cc3)C(=C/C=C3/N(CCCCCC(=O)NCCC(=O)N4Cc5ccccc5C#Cc5ccccc54)c4ccc(S(=O)(=O)[O-])cc4C3(C)C)/CCC2)=[N+](CCCCS(=O)(=O)[O-])c2ccc(S(=O)(=O)[O-])cc21.[Na+].[Na+].[Na+]` [Compound 30] the figure was 1203780; with `CC1(C)C(/C=C/C2=C(Oc3ccc(S(=O)(=O)[O-])cc3)C(=C/C=C3/N(CCCCS(=O)(=O)[O-])c4ccc(S(=O)(=O)[O-])cc4C3(C)C)/CCC2)=[N+](CCCCCC(=O)NCCCOCCOCCOCCCN)c2ccc(S(=O)(=O)[O-])cc21.O=C(O)C(F)(F)F.[Na+].[Na+].[Na+]` [Compound 32], 1343900.
Take `CC1(C)C(/C=C/C2=C(Oc3ccc(S(=O)(=O)[O-])cc3)C(=C/C=C3/N(CCCCS(=O)(=O)[O-])c4ccc(S(=O)(=O)[O-])cc4C3(C)C)/CCC2)=[N+](CCCCCC(=O)NCCCCCCNC(=O)CCCCC[N+]2=C(/C=C/C3=C(c4ccccc4F)C(=C/C=C4/N(CCCS(=O)(=O)[O-])c5ccc(N(CCCS(=O)(=O)[O-])CCCS(=O)(=O)[O-])cc5C4(C)C)/CCC3)C(C)(C)c3c2ccc2cc(S(=O)(=O)[O-])ccc32)c2ccc(S(=O)(=O)[O-])cc21.[Na+].[Na+].[Na+].[Na+].[Na+].[Na+]` [Compound 37]: in data set [3], the “Peak fluorescence emission intensity” value amounted to 519267 and the “Percent Quenching” value is on record as 61.4%.
As for `CC1(C)C(/C=C/C2=C(Oc3ccc(S(=O)(=O)[O-])cc3)C(=C/C=C3/N(CCCCS(=O)(=O)[O-])c4ccc(S(=O)(=O)[O-])cc4C3(C)C)/CCC2)=[N+](CCCCCC(=O)NCCCOCCOCCOCCCNC(=O)CCCCC[N+]2=C(/C=C/C3=C(c4ccccc4F)C(=C/C=C4/N(CCCS(=O)(=O)[O-])c5ccc(N(CCCS(=O)(=O)[O-])CCCS(=O)(=O)[O-])cc5C4(C)C)/CCC3)C(C)(C)c3c2ccc2cc(S(=O)(=O)[O-])ccc32)c2ccc(S(=O)(=O)[O-])cc21.[Na+].[Na+].[Na+].[Na+].[Na+].[Na+]` [Compound 38], in data set [3], the “Peak fluorescence emission intensity” value is given as 385983 and the “Percent Quenching” value turned out to be 71.3%.
On the same counts, the results for `CC1(C)C(/C=C/C2=C(Oc3ccc(S(=O)(=O)[O-])cc3)C(=C/C=C3/N(CCCCS(=O)(=O)[O-])c4ccc(S(=O)(=O)[O-])cc4C3(C)C)/CCC2)=[N+](CCCCCC(=O)NCCOCCOCCOCCOCCOCCOCCOCCOCCOCCOCCOCCNC(=O)CCCCC[N+]2=C(/C=C/C3=C(c4ccccc4F)C(=C/C=C4/N(CCCS(=O)(=O)[O-])c5ccc(N(CCCS(=O)(=O)[O-])CCCS(=O)(=O)[O-])cc5C4(C)C)/CCC3)C(C)(C)c3c2ccc2cc(S(=O)(=O)[O-])ccc32)c2ccc(S(=O)(=O)[O-])cc21.[Na+].[Na+].[Na+].[Na+].[Na+].[Na+]` [Compound 39] are 438981 and 65.5%.
On to `CC1(C)C(/C=C/C2=C(c3cccc(F)c3F)C(=C/C=C3/N(CCCCS(=O)(=O)[O-])c4ccc(S(=O)(=O)[O-])cc4C3(C)C)/CCC2)=[N+](CCCCS(=O)(=O)[O-])c2ccc(S(=O)(=O)[O-])cc21.[Na+].[Na+].[Na+]` [Compound 62k], for which, in data set [4], the “Fl Intensity of X / Fl Intensity of 800 CW, Odyssey” value is recorded as 104%; the “Fl Intensity of X / Fl Intensity of 800 CW, Fluorimeter” value worked out at 100%; the “Abs Max PBS” value worked out at 773 nm; the “EmMax PBS” value is on record as 790 nm. Moreover, in data set [4] (Stnd = IRDye 800CW (QY = 0.07)), the “Quantum Yield” value is 0.060. Besides, the “Abs Max Methanol” value in data set [4] (in methanol) was 781 nm.
On to `CC1(C)C(=CC=C2CCCC(C=CC3=[N+](CCCCCC(=O)[O-])c4ccc(S(=O)(=O)[O-])cc4C3(C)C)=C2Oc2ccc(S(=O)(=O)[O-])cc2)N(CCCCS(=O)(=O)[O-])c2ccc(S(=O)(=O)[O-])cc21.[Na+].[Na+].[Na+].[Na+]` [IRDye 800CW, reference compound], for which the “Quantum Yield of the standard” value in data set [5] is given as 0.07. In data set [4], the “Fl Intensity of X / Fl Intensity of 800 CW, Odyssey” value is reported as 100%; the “Fl Intensity of X / Fl Intensity of 800 CW, Fluorimeter” value was determined as 100%; the “Abs Max PBS” value was found to be 775 nm; the “EmMax PBS” value amounted to 790 nm.
With `CC1(C)C(/C=C/C2=C(Oc3ccc(S(=O)(=O)[O-])cc3)C(=C/C=C3/N(CCCCS(=O)(=O)[O-])c4ccc(S(=O)(=O)[O-])cc4C3(C)C)/CCC2)=[N+](CCCCCC(=O)NCCOCCOCCOCCOCCOCCOCCOCCOCCOCCOCCOCCN)c2ccc(S(=O)(=O)[O-])cc21.O=C(O)C(F)(F)F.[Na+].[Na+].[Na+]` [IRDye 800CW-PEG11-NH2], the “Peak fluorescence emission intensity” value in data set [3] is reported as 1272820.
Take “IRDye 800CW carboxylate [reference compound]”: the “Total (signal)” value in data set [2] (3 Min) turned out to be 114295.49; in data set [2] (19 Min), 306555.97; in data set [2] (47 Min), 291381.69; in data set [2] (74 Min), 272408.13; in data set [2] (192 Min), 154950.09; in data set [2] (278 Min), 102698.54. For the same compound, the “Total (signal)” value in data set [2] (1439 Min) is 2336.87. Besides, in data set [2], the Clearance in vivo entry is “good clearance”.
